Measured values published in PubChem BioAssay (NCI).
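Method: 48-hour compound exposure of cells in 96-well plates, five concentrations, linear interpolation of endpoints. Definition used: TGI = concentration required for complete inhibition of growth.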

Assays:
Assay in all cases: NCI-60 cell line screen, 48 h
A549 NSCLC = test system: A549 NSCLC
EKVX NSCLC = test system: EKVX NSCLC
HT29 colon = test system: HT29 colon
NCI-H226 lung = test system: NCI-H226 lung
OVCAR-5 ovarian = test system: OVCAR-5 ovarian
OVCAR-8 ovarian = test system: OVCAR-8 ovarian
RPMI-8226 leukemia = test system: RPMI-8226 leukemia
RXF 393 renal = test system: RXF 393 renal
UACC-257 melanoma = test system: UACC-257 melanoma
UACC-62 melanoma = test system: UACC-62 melanoma
DU-145 prostate = test system: DU-145 prostate
PC-3 prostate = test system: PC-3 prostate

SMILES	TGI (A549 NSCLC)	TGI (EKVX NSCLC)	TGI (HT29 colon)	TGI (NCI-H226 lung)	TGI (OVCAR-5 ovarian)	TGI (OVCAR-8 ovarian)	TGI (RPMI-8226 leukemia)	TGI (RXF 393 renal)	TGI (UACC-257 melanoma)	TGI (UACC-62 melanoma)	TGI (DU-145 prostate)	TGI (PC-3 prostate)
CC(=O)OC1COC(N2C(=O)C(=O)c3cc(Br)c([N+](=O)[O-])cc32)C(OC(C)=O)C1OC(C)=O (stereo not drawn)	> 100 µM	> 100 µM	> 100 µM	> 100 µM	> 100 µM	> 100 µM	> 100 µM	82.3 µM	> 100 µM	> 100 µM	–	–
CC(C)=NN/C(=N\S(=O)(=O)c1cc(Cl)c(Oc2ccc([N+](=O)[O-])cc2Cl)c(Cl)c1)Nc1ccc(Cl)cc1	> 100 µM	> 100 µM	> 100 µM	> 100 µM	> 100 µM	> 100 µM	> 100 µM	–	> 100 µM	> 100 µM	> 100 µM	> 100 µM
CC(=O)OC(C)(C)C1CCC(C)(C(O)COc2ccc(CCNC(=O)c3ccccc3)cc2)O1 (stereo not drawn)	> 100 µM	–	> 100 µM	–	> 100 µM	> 100 µM	> 100 µM	> 100 µM	> 100 µM	> 100 µM	–	–
Cc1ccc(S(=O)/C=C(\NC(=O)OCc2ccccc2)C(F)(F)F)cc1 (stereo not drawn)	> 100 µM	> 100 µM	> 100 µM	> 100 µM	> 100 µM	> 100 µM	–	> 100 µM	> 100 µM	> 100 µM	> 100 µM	> 100 µM
NS(=O)(=O)c1ccc(CNC(=S)NC(=O)Nc2ccc(Cl)c(Cl)c2)cc1	65.5 µM	–	61.1 µM	–	> 100 µM	53.4 µM	41.6 µM	84.7 µM	> 100 µM	29.3 µM	> 100 µM	25.2 µM
CC1OC(OP(=O)(OCc2ccccc2)OCc2ccccc2)C(OC(=O)c2ccccc2)C(OC(=O)c2ccccc2)C1I (stereo not drawn)	> 100 µM	> 100 µM	> 100 µM	–	> 100 µM	> 100 µM	97.8 µM	76.9 µM	> 100 µM	> 100 µM	–	–
O=C(/C=C1\N=C(c2ccccc2)N(c2ccc3c(c2)Sc2cc(N4C(=O)/C(=C/C(=O)/C=C/c5ccccc5)N=C4c4ccccc4)ccc2N3)C1=O)/C=C/c1ccccc1	> 100 µM	> 100 µM	> 100 µM	–	48.8 µM	> 100 µM	> 100 µM	> 100 µM	83 µM	33.3 µM	> 100 µM	37.6 µM
CC1(C)OC1CC/C(=C/CBr)CBr (stereo not drawn)	53.1 µM	33.3 µM	30 µM	48.4 µM	31.5 µM	–	40.7 µM	31.2 µM	28.8 µM	–	55.6 µM	29.3 µM
CC(C)(C)NCC(O)COc1cccc2[nH]c(C#N)cc12 (stereo not drawn)	> 100 µM	> 100 µM	> 100 µM	> 100 µM	> 100 µM	> 100 µM	> 100 µM	–	–	> 100 µM	> 100 µM	> 100 µM
CC1(C(O)c2ccccc2)CN(C(C)(C)C)C(=O)/C1=C\Sc1ccccc1 (stereo not drawn)	> 100 µM	> 100 µM	79.8 µM	–	> 100 µM	> 100 µM	> 100 µM	–	95.2 µM	> 100 µM	> 100 µM	> 100 µM
CCOc1ccc(N=NC2C(=O)N(C(=O)CC(=O)Nc3ccc(Cl)cc3)N=C2C)cc1 (stereo not drawn)	> 100 µM	> 100 µM	> 100 µM	> 100 µM	> 100 µM	> 100 µM	> 100 µM	> 100 µM	–	> 100 µM	> 100 µM	> 100 µM
CCC1OC2C(CC=C(C)C)=C3OC(C)(O)C(C)(CC)C(O)C3=C3OC(=O)C=C1C32 (stereo not drawn)	> 100 µM	> 100 µM	–	> 100 µM	> 100 µM	–	> 100 µM	–	> 100 µM	> 100 µM	> 100 µM	> 100 µM
COC(=O)c1nc2c(C)c(O)c(O)c([C@H](C)CCC=C(C)C)c2o1	57.1 µM	> 100 µM	37 µM	34.2 µM	> 100 µM	> 100 µM	> 100 µM	39.6 µM	78 µM	–	> 100 µM	93.5 µM
COc1cc(O)c(C(=O)/C=C/c2ccc(O)cc2)cc1Oc1ccc(C(=O)/C=C/c2ccc(O)cc2)c(O)c1	15.3 µM	5.68 µM	2.66 µM	–	5.6 µM	7.97 µM	6.49 µM	6.1 µM	21.7 µM	4.52 µM	5.78 µM	19.8 µM
COc1ccc(N=NN2CCCC2)cc1	> 100 µM	58.8 µM	> 100 µM	> 100 µM	> 100 µM	–	74.1 µM	64.1 µM	> 100 µM	> 100 µM	> 100 µM	> 100 µM
O=Cc1cc(O)c(O)c(O)c1-c1c(C=O)cc(O)c(O)c1O	> 100 µM	> 100 µM	> 100 µM	> 100 µM	> 100 µM	> 100 µM	> 100 µM	–	> 100 µM	> 100 µM	–	–
N#Cc1nn(-c2ccc(Cl)cc2)c(N)c2c(=N)n3nc(-c4ccccc4)cc3nc12	> 42.1 µM	> 100 µM	> 32.8 µM	> 100 µM	–	> 100 µM	–	76.8 µM	> 100 µM	> 35.7 µM	–	–
COc1cccc(-n2nnc3c(N)nc(N)nc32)c1	> 100 µM	> 100 µM	> 100 µM	> 100 µM	> 100 µM	> 100 µM	> 100 µM	–	> 100 µM	> 100 µM	> 100 µM	> 100 µM
Cc1ccc(Nc2ncnc3sc(SCc4ccccc4)nc23)cc1	> 100 µM	> 100 µM	> 100 µM	> 100 µM	> 100 µM	> 100 µM	> 100 µM	> 100 µM	> 100 µM	–	> 100 µM	> 100 µM
CC(=O)c1nc2ccccc2n1CC(=O)c1ccc([N+](=O)[O-])cc1	37.6 µM	> 100 µM	46 µM	57.9 µM	–	21 µM	> 100 µM	> 100 µM	> 100 µM	60.9 µM	> 100 µM	44.4 µM
